Patent US9833494B2, “Methods of treating medical conditions using peptides” (KeyBioscience AG, priority 2009, dated 2017)
Entries after “also recorded” stand apart in the source; their conditions may differ. Bridge positions count the residues as written; N and C are the ends. Ends that are not written are not given here.

What was measured:
[1] = target: T1, calcitonin receptors on T47D cells (Homo sapiens, UniProt P30988); experiment: binding to calcitonin receptors on T47D cells
T1 construct: endogenous in cells; host or cells: T47D cells
T1 sequence (P30988 25-474): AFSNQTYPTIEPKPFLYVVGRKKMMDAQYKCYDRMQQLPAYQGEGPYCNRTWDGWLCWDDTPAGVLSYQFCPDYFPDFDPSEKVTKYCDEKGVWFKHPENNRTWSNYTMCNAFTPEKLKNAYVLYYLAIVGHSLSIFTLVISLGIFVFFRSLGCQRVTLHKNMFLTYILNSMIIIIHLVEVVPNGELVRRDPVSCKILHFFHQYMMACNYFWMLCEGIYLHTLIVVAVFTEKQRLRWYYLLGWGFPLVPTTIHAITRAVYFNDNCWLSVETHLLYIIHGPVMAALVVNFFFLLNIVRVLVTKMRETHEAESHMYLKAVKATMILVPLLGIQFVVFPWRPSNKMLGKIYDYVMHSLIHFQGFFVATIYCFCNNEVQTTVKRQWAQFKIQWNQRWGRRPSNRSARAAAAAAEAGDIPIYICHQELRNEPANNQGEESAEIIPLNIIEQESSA
From the text: FIG. 4 is a graph illustrating calcitonin-like properties of three peptides of the invention in comparison to salmon calcitonin in an assay that measures binding to calcitonin receptors on T47D cells. The three peptides of the invention are UGP269 (SEQ ID NO: 12), UGP 271 (SEQ ID NO: 13) and UGP281 (SEQ ID NO: 14).

[2] = relative weight change by rats injected daily; type: in vivo, rat; settings: for relative weight change: same dose; for effectiveness in weight control: FIGS. 5 and 6
From the text: FIG. 5 is a graph illustrating relative weight change by rats injected daily with the same dose of either a placebo, UGP269 (SEQ ID NO: 12) or UGP 271 (SEQ ID NO: 13), at 7 and 14 days after commencement of the injection regimen. […] UGP 271 contained nearly the same sequence of amino acids as UGP269 except for the replacement of three amino acids at positions 26, 27 and 29.
FIG. 6 is a graph illustrating relative weight change by rats injected daily with the same dose of either a placebo, salmon calcitonin, UGP 271 (SEQ ID NO: 13) or UGP 281 (SEQ ID NO: 14) at 7 and 14 days after commencement of the injection regimen. FIG. 1 is a graph illustrating data from a bioassay comparing cAMP response for a peptide of the invention, SEQ ID NO:3, versus recombinant salmon calcitonin. […] UGP281 and UGP271 had identical amino acid sequences except that UGP281 was acylated at the N-terminus with acetate.

[3] = placebo controlled crossover study with Beagle dogs, oral enteric-coated capsules (food intake, weight); type: in vivo, Beagle dog; settings: for effect on food intake / change in weight during the dosing period: oral capsules; for effect on food intake: equivalent doses, week of dosing, FIG. 2; for change in weight during the dosing period: same dose, FIG. 3
From the text: (§1) FIG. 2 is a graph illustrating the effect on food consumption provided by SEQ ID NO: 3 versus a placebo and two known appetite suppressants in a Beagle dog study. Average daily change in food consumption is shown following administration of oral capsules containing various doses of sCT, PYY or SEQ ID NO: 3 given to beagle dogs for four to seven days.
as §1, with “3” for “2”, “weight” for “food consumption”, “PYY,” for “PYY”
The effect of peptide SEQ ID NO: 3 on food intake was investigated in a placebo controlled crossover study with Beagle dogs. Peptide SEQ ID NO: 3, as well as salmon calcitonin (sCT) and PYY(3-36)NH2 were formulated in enteric-coated capsules for oral delivery. The capsules also contained excipients that inhibit proteases and enhance the absorption of peptides. Placebo capsules contained the same excipients without the peptide. Food and water intake, as well as the weight of the dogs was monitored daily before, during, and after the dosing period. Dogs were allowed access to a known amount of food for an 8 hour period every day, and water was provided ad libitum. […] The food intake of dogs given a placebo remained unchanged.

calcitonin receptor = target: T2, calcitonin receptor (Homo sapiens, UniProt P30988); experiment: cAMP response bioassay with T47D cells; type: cell-based; settings: FIG. 1, versus recombinant salmon calcitonin
T2 construct: endogenous in cells; host or cells: T47D cells
T2 sequence (P30988 25-474): T1 sequence (P30988 25-474)
Description: FIG. 1 is a graph illustrating data from a bioassay comparing cAMP response for a peptide of the invention, SEQ ID NO: 3, versus recombinant salmon calcitonin. Two replicate bioassay experiments were performed measuring the cAMP response with T47D cells. Each experiment compared three samples of SEQ ID NO: 3 to a sample of rsCT.

[4] = rats injected daily, 7 and 14 days, FIG. 5, versus placebo
[5] = rats injected intramuscularly daily, two weeks, FIG. 6

Compound	binding to calcitonin receptors compared with sCT ([1]; FIG. 4)	binding to calcitonin receptors compared with sCT ([1]; FIG. 4, listed as UGP 271)	relative weight change [2, 4]	relative weight change [2, 5]	effectiveness in weight control ([2]; rats)	effect on food intake [3]	change in weight during the dosing period [3]	potency in reducing food consumption relative to sCT ([3]; FIGS. 1-3)	cAMP response (indicator of calcitonin receptor activation) compared with salmon calcitonin (calcitonin receptor)	enhancement of efficacy by the acetyl group on cysteine-1 ([2]; rats, FIG. 6, UGP281 versus UGP271)
UGP271: nearly the same sequence as UGP269 except for the replacement of three amino acids at positions 26, 27 and 29 (CSNLSTCVLGKLSQELHKLQTYPRTDVGANTY-NH2; disulfide 1-7; N-terminus assumed; SMILES CC(C)C[C@H](NC(=O)[C@H](CCCCN)NC(=O)CNC(=O)[C@H](CC(C)C)NC(=O)[C@@H](NC(=O)[C@@H]1CSSC[C@H](N)C(=O)N[C@@H](CO)C(=O)N[C@@H](CC(N)=O)C(=O)N[C@@H](CC(C)C)C(=O)N[C@@H](CO)C(=O)N[C@@H]([C@@H](C)O)C(=O)N1)C(C)C)C(=O)N[C@@H](CO)C(=O)N[C@@H](CCC(N)=O)C(=O)N[C@@H](CCC(=O)O)C(=O)N[C@@H](CC(C)C)C(=O)N[C@@H](Cc1c[nH]cn1)C(=O)N[C@@H](CCCCN)C(=O)N[C@@H](CC(C)C)C(=O)N[C@@H](CCC(N)=O)C(=O)N[C@H](C(=O)N[C@@H](Cc1ccc(O)cc1)C(=O)N1CCC[C@H]1C(=O)N[C@@H](CCCNC(=N)N)C(=O)N[C@H](C(=O)N[C@@H](CC(=O)O)C(=O)N[C@H](C(=O)NCC(=O)N[C@@H](C)C(=O)N[C@@H](CC(N)=O)C(=O)N[C@H](C(=O)N[C@@H](Cc1ccc(O)cc1)C(N)=O)[C@@H](C)O)C(C)C)[C@@H](C)O)[C@@H](C)O)	less binding to sCT receptors than sCT	less binding affinity for the calcitonin receptor than does salmon calcitonin	no weight gain	modest weight loss	good effectiveness in weight control					
CC(C)C[C@H](NC(=O)[C@H](CCCCN)NC(=O)CNC(=O)[C@H](CC(C)C)NC(=O)[C@@H](NC(=O)[C@@H]1CSSC[C@H](N)C(=O)N[C@@H](CO)C(=O)N[C@@H](CC(N)=O)C(=O)N[C@@H](CC(C)C)C(=O)N[C@@H](CO)C(=O)N[C@@H]([C@@H](C)O)C(=O)N1)C(C)C)C(=O)N[C@@H](CO)C(=O)N[C@@H](CCC(N)=O)C(=O)N[C@@H](CCC(=O)O)C(=O)N[C@@H](CC(C)C)C(=O)N[C@@H](Cc1c[nH]cn1)C(=O)N[C@@H](CCCCN)C(=O)N[C@@H](CC(C)C)C(=O)N[C@@H](CCC(N)=O)C(=O)N[C@H](C(=O)N[C@@H](Cc1ccc(O)cc1)C(=O)N1CCC[C@H]1C(=O)N[C@@H](CCCNC(=N)N)C(=O)N[C@H](C(=O)N[C@@H](CC(N)=O)C(=O)N[C@H](C(=O)NCC(=O)N[C@@H](CO)C(=O)NCC(=O)N[C@H](C(=O)N1CCC[C@H]1C(N)=O)[C@@H](C)O)[C@@H](C)O)[C@@H](C)O)[C@@H](C)O [sCT, salmon calcitonin]				significant weight loss		significantly decreased food intake	small but significant reduction in weight			
PYY(3-36)NH2						lesser effect	0.05 % per day			
UGP269: peptide of the invention, calcitonin analog (CSNLSTCVLGKLSQELHKLQTYPRTNTGSNTY-NH2; disulfide 1-7; N-terminus assumed; SMILES CC(C)C[C@H](NC(=O)[C@H](CCCCN)NC(=O)CNC(=O)[C@H](CC(C)C)NC(=O)[C@@H](NC(=O)[C@@H]1CSSC[C@H](N)C(=O)N[C@@H](CO)C(=O)N[C@@H](CC(N)=O)C(=O)N[C@@H](CC(C)C)C(=O)N[C@@H](CO)C(=O)N[C@@H]([C@@H](C)O)C(=O)N1)C(C)C)C(=O)N[C@@H](CO)C(=O)N[C@@H](CCC(N)=O)C(=O)N[C@@H](CCC(=O)O)C(=O)N[C@@H](CC(C)C)C(=O)N[C@@H](Cc1c[nH]cn1)C(=O)N[C@@H](CCCCN)C(=O)N[C@@H](CC(C)C)C(=O)N[C@@H](CCC(N)=O)C(=O)N[C@H](C(=O)N[C@@H](Cc1ccc(O)cc1)C(=O)N1CCC[C@H]1C(=O)N[C@@H](CCCNC(=N)N)C(=O)N[C@H](C(=O)N[C@@H](CC(N)=O)C(=O)N[C@H](C(=O)NCC(=O)N[C@@H](CO)C(=O)N[C@@H](CC(N)=O)C(=O)N[C@H](C(=O)N[C@@H](Cc1ccc(O)cc1)C(N)=O)[C@@H](C)O)[C@@H](C)O)[C@@H](C)O)[C@@H](C)O)	less binding to sCT receptors than sCT; also recorded: less binding affinity for the calcitonin receptor than does salmon calcitonin		less weight gain over two weeks than those injected with placebo		good effectiveness in weight control					
SEQ ID NO: 3: salmon calcitonin sequence except asparagine at position 30 and tyrosine at position 32, amidated at tyrosine-32 (CSNLSTCVLGKLSQELHKLQTYPRTNTGSNTY-NH2; ends and bridges not checked)						significantly decreased food intake	small but significant reduction in weight	comparable to that of the bone anti-resorptive peptide sCT	less potent when binding to the calcitonin receptor than is natural salmon calcitonin	
UGP281: amino acid sequence identical to UGP271 except acylated at the N-terminus with acetate (Ac-CSNLSTCVLGKLSQELHKLQTYPRTDVGANTY-NH2; disulfide 1-7; SMILES CC(=O)N[C@H]1CSSC[C@@H](C(=O)N[C@H](C(=O)N[C@@H](CC(C)C)C(=O)NCC(=O)N[C@@H](CCCCN)C(=O)N[C@@H](CC(C)C)C(=O)N[C@@H](CO)C(=O)N[C@@H](CCC(N)=O)C(=O)N[C@@H](CCC(=O)O)C(=O)N[C@@H](CC(C)C)C(=O)N[C@@H](Cc2c[nH]cn2)C(=O)N[C@@H](CCCCN)C(=O)N[C@@H](CC(C)C)C(=O)N[C@@H](CCC(N)=O)C(=O)N[C@H](C(=O)N[C@@H](Cc2ccc(O)cc2)C(=O)N2CCC[C@H]2C(=O)N[C@@H](CCCNC(=N)N)C(=O)N[C@H](C(=O)N[C@@H](CC(=O)O)C(=O)N[C@H](C(=O)NCC(=O)N[C@@H](C)C(=O)N[C@@H](CC(N)=O)C(=O)N[C@H](C(=O)N[C@@H](Cc2ccc(O)cc2)C(N)=O)[C@@H](C)O)C(C)C)[C@@H](C)O)[C@@H](C)O)C(C)C)NC(=O)[C@H]([C@@H](C)O)NC(=O)[C@H](CO)NC(=O)[C@H](CC(C)C)NC(=O)[C@H](CC(N)=O)NC(=O)[C@H](CO)NC1=O)	less binding to sCT receptors than sCT; also recorded: less binding affinity for the calcitonin receptor than does salmon calcitonin			significant weight loss	good effectiveness in weight control					substantial enhancement of efficacy
